41 compounds from ChEMBL document CHEMBL4411258, “Novel natural compounds from endophytic fungi with anticancer activity” (Eur J Med Chem, 2018) can be followed below.

The test system of assay [1] is MCF7. The assay can be described thus: Cytotoxicity against human MCF7 cells after 72 hrs by MTT assay. Format: functional, cell-based. The note with it: MCF7, 72 h.
A short description of assay [2]: Cytotoxicity against human KATO III cells after 72 hrs by MTT assay. The class given is functional, cell-based.
For assay [3], the system named is MCF7. The assay can be described thus: Cytotoxicity against human MCF7 cells after 48 hrs by MTT assay. The class given is functional, cell-based. (In general: Tetrazolium assays rely on reduction of a dye to a coloured formazan, in cell work by metabolically active cells.)
Assay [4] has as its system A549. The assay can be described thus: Cytotoxicity against human A549 cells after 48 hrs by MTT assay. Format: functional, cell-based. The note with it: for pIC50: Homo sapiens, A549, 48 h, read-out: IC50.
Assay [5] relates to SH-SY5Y. The assay can be described thus: Cytotoxicity against human SH-SY5Y cells after 48 hrs by MTT assay. Format: functional, cell-based.
The test system of a further assay is NB-4. The assay can be described thus: Cytotoxicity against human NB4 cells after 48 hrs by MTT assay. The note with it: NB-4, 48 h. The class given is functional, cell-based.
A further assay has as its system PC-3. Description: Cytotoxicity against human PC3 cells after 48 hrs by MTT assay. Format: functional, cell-based. The note with it: PC-3, 48 h.
Assay [6] deals with SH-SY5Y. The assay can be described thus: Cytotoxicity against human SH-SY5Y cells by MTT assay. Format: functional, cell-based.
A further assay concerns HepG2. The assay can be described thus: Cytotoxicity against human HepG2 cells by MTT assay. Format: functional, cell-based.
Assay [7] has as its system A549. Description: Cytotoxicity against human A549 cells by MTT assay. Format: functional, cell-based.
In assay [8] the test system is MCF7. Description: Cytotoxicity against human MCF7 cells by MTT assay. Format: functional, cell-based.
For another assay, the system named is L5178Y. Description: Cytotoxicity against mouse L5178Y cells by MTT assay. Format: functional, cell-based.
Another assay relates to L02. The assay can be described thus: Cytotoxicity against human L02 cells by MTS assay. Format: cell-based.
Setting [9] is: Homo sapiens, MCF7, 48 h, read-out: IC50.

For orientation: pIC50 means the IC50 on a negative log10 scale, so that one unit is a factor of ten. The IC50 is the concentration at which inhibition is half-maximal.

Each structure is given as a SMILES string. pIC50: −log10 of the molar value.

As to `COc1cc(O)c2c(=O)cc(C)oc2c1[C@H](C[C@@H](OC)C(=O)O)OC`, the pIC50 with MCF7 [1] was 4.75; in assay [2], 4.80.

As to `COc1ccc2c(c1C/C=C(\C)CO)C=C(CO)OC2`, the pIC50 in the assay on MCF7 [3] (setting [9]), in the assay on A549 [4], in the assay on SH-SY5Y [5], with NB-4 and in the assay on PC-3 was 5.06 to 5.55 each time.

In the case of `CS[C@@]1(CO)C(=O)N(C)[C@@](Cc2cn([C@@]34C[C@@]5(SC)C(=O)N(C)[C@](CO)(SC)C(=O)N5[C@]3(C)Nc3ccccc34)c3ccccc23)(SC)C(=O)N1C`, the IC50 in the assay on MCF7 [3] (setting [9]) was found to be 8.3 µg/mL.

As for `CC(=O)Cc1cc2c(CCCO)cc(O)cc2c(=O)o1`, the negative-log IC50 (pIC50) in the assay on MCF7 [3] (setting [9]), in the assay with A549 [4], in the assay with SH-SY5Y [5], in the assay on NB-4 and with PC-3 was 5.06 to 5.55 throughout.

For `C/C(=C\Cc1c(O)ccc2c1C=C(CO)OC2)CO`, the pIC50 in the assay on MCF7 [3] (setting [9]), in the assay on A549 [4], in the assay on SH-SY5Y [5], in the assay on NB-4 and in the assay with PC-3 was 5.06 to 5.55 in each case.

`COc1cc(OC)c2c(c1CC=C(C)C)C[C@@H](C)OC2=O`: the pIC50 is 5.07 in the assay with SH-SY5Y [6] and 5.03 in the assay on HepG2.

As to `COc1ccc(CCCO)c2cc(CC(C)=O)oc(=O)c12`, the pIC50 in the assay with MCF7 [3] (setting [9]), with A549 [4], in the assay on SH-SY5Y [5], with NB-4 and in the assay on PC-3 was 5.06 to 5.55 throughout.

In turn, `CCCCC[C@@H]1CC[C@H](C)CCCCC(=O)N[C@@H](Cc2ccc(OCC=C(C)C)cc2)C(=O)O1` showed a pIC50 in the assay on HepG2 of 4.44.

With `COc1c(O)cc2c(c1CC=C(C)C)C=C(C)OC2`, the negative logarithm of the IC50 (pIC50) in the assay with HepG2 is 5.06; in the assay with A549 [7], 5.03.

For the compound `COc1ccc2c(c1)N(C(=O)C=C(C)C)C1C2[C@H](O)[C@@]2(O)C(=O)N3CCC[C@H]3C(=O)N2[C@H]1CC(C)(C)O` (stereo partly drawn), the pIC50 in the assay on PC-3 was 4.51.

As to `Cc1cc(O)c2c(c1)C(=O)c1c(c(O)cc(O)c1-c1c(O)cc(O)c3c1C(=O)c1cc(CC(C)O)cc(O)c1C3=O)C2=O` (stereo not drawn), the IC50 in the assay with MCF7 [3] (setting [9]) was 20.8 µg/mL.

As for `CC(C)[C@@H]1CC[C@](C)(O)C2=C1C(=O)[C@](C)(O)C[C@@H]2O`, the figures for the negative-log IC50 (pIC50) in the assay on A549 [7] and in the assay with MCF7 [8] were 6.70 and 5.23, respectively.

In the assay on SH-SY5Y [6], `COc1c(O)cc2c(c1CC=C(C)C)C[C@@H](C)OC2=O` had a pIC50 of 5.06.

Consider `COc1cc(O)c2c(c1)C(=O)C1=C(C2=O)[C@H](O)[C@@H](O)[C@@](C)(O)C1`, for which, in the assay with L5178Y, the pIC50 was 5.03.

Regarding `COc1cc(O)c2c(=O)cc(C)oc2c1[C@@H]1C[C@@H](OC)C(=O)O1`, the results for the pIC50 (in the assay on MCF7 [1]; in assay [2]) were 4.71 and 4.63, respectively.

For `CC(=O)OCC1=C[C@@H]2[C@H](CCO)[C@@]1(C)CCCC2(C)C`, the IC50 in the assay with MCF7 [3] (mcf7) was determined as 19.1 µM; in the assay on A549 [4] (a549), 33.2 µM.

In the assay with L5178Y, `COc1cc(O)c2c(c1)C(=O)[C@@H]1[C@H](C[C@@H](O)[C@@](C)(O)[C@@H]1O)C2=O` gave a pIC50 of 5.47.

For the compound `COc1cc(O)c2c(c1)C=C([C@H](O)[C@H](O)C(Cl)Cl)OC2O` (stereo partly drawn), the IC50 with HepG2 stood at 39.6 µg/mL; with MCF7 [8] it was 17.8 µg/mL.

Regarding `COC(=O)[C@]1(Cc2ccc(O)c(CC=C(C)C)c2)OC(=O)C(O)=C1c1ccccc1`, the pIC50 in the assay on SH-SY5Y [6], in the assay with HepG2 and in the assay on L02 was more than 5.00 each time.

For `COC(=O)[C@]1(Cc2ccc(O)c(CC=C(C)C)c2)OC(=O)C(O)=C1c1ccc(OC)cc1`, the pIC50 with SH-SY5Y [6], with HepG2 and in the assay with L02 was more than 5.00 each time.

As to `COC(=O)CCCN1C(=O)[C@@]23O[C@@]4(O)[C@@]5(O)[C@@H]2[C@@H](Cc2cccc1c23)C(C)(C)N5C(=O)[C@]4(O)[C@@H](C)O`, the pIC50 in the assay with MCF7 [3] (setting [9]), in the assay on A549 [4], in the assay with SH-SY5Y [5] and in the assay with NB-4 was more than 5.00 throughout.

On to `COC(=O)[C@]1(Cc2ccc(OC)c(CC=C(C)C)c2)OC(=O)C(O)=C1c1ccccc1`, for which the pIC50 with SH-SY5Y [6], in the assay on HepG2 and with L02 was more than 5.00 each time.

Consider `COC(=O)[C@]1(Cc2cc(CC=C(C)C)c(O)c(OC)c2)OC(=O)C(O)=C1c1ccc(O)cc1`, for which the negative-log IC50 (pIC50) in the assay with HepG2 is 5.44; in the assay with L02, 5.38.

For `C[C@@H](O)[C@@]1(O)C(=O)N2C(C)(C)[C@@H]3Cc4cccc5c4[C@@]4(O[C@@]1(O)[C@@]2(O)[C@H]34)C(=O)N5C`, the negative logarithm of the IC50 (pIC50) with MCF7 [3] (setting [9]), with A549 [4], in the assay with SH-SY5Y [5], in the assay with NB-4 and in the assay on PC-3 was 5.38 to 5.92 in each case.

As to `COc1ccc2c(c1CC=C(C)C)C=C(C)OC2`, the negative logarithm of the IC50 (pIC50) in the assay with SH-SY5Y [6] was 5.17; in the assay with HepG2 it was 5.09.

For `COC(=O)[C@@H](C[C@@H](OC)c1c(OC)cc(O)c2c(=O)cc(C)oc12)OC`, the negative-log IC50 (pIC50) in assay [2] was 4.67.

The compound `COc1cc(O)c2c(=O)cc(C)oc2c1[C@@H](C[C@@H](OC)C(=O)O)OC` gave a pIC50 in [2] of 4.77.

Compound `COC(=O)c1cccc2oc3cc(C)cc(O[C@@H]4O[C@H](CO)[C@@H](O)[C@H](O)[C@H]4O)c3c(=O)c12` came in with an IC50 in the assay on L02 of 6.8 µg/mL.

Take `C[C@H]1[C@H](O)CCC(C)(C)[C@@]12CC=C(C(=O)O)CC2`: the negative-log IC50 (pIC50) in [2] was 4.46.

`COC(=O)[C@]1(Cc2ccc(OC)c(CC=C(C)C)c2O)OC(=O)C(O)=C1c1ccc(O)cc1`: the negative logarithm of the IC50 (pIC50) with HepG2 was 5.32; in the assay with L02, 5.41.

For `CC[C@@H](C)C[C@H](/C=C(\C)[C@H](O)[C@H](C)/C=C(\C)[C@H](O)[C@H](C)/C=C/[C@H](O)[C@H](C)/C=C(\C)C=O)CO`, the pIC50 in the assay with L5178Y is 5.39.

As to `C[C@@H]1CC2=C(CO1)C(=O)[C@@](C)(O)[C@@H](O)C2`, the pIC50 in the assay on A549 [7] was 4.38; in the assay with MCF7 [8], 5.60.

Take `COc1cc(O)c2c(=O)c3c(O)ccc(C(CO)C(O)CO)c3oc2c1O` (stereo not drawn): the pIC50 in the assay on A549 [7] is 5.44.

As for `COc1cc2c(c3c1OC(C)(C)CC3=O)C[C@@H](C)OC2=O`, the negative logarithm of the IC50 (pIC50) in the assay with HepG2 was 5.40; in the assay with L02, 5.42.

In the case of `CN1C(=O)[C@]23O[C@]4(O)[C@@H](O)C(=O)N5C(C)(C)[C@H](Cc6cccc1c62)[C@H]3[C@@]54O`, the negative-log IC50 (pIC50) in the assay on MCF7 [3] (setting [9]), with A549 [4], in the assay on SH-SY5Y [5], in the assay on NB-4 and in the assay with PC-3 was 5.38 to 5.92 throughout.

Turning to `CC(C)=CCc1cc2c3c(c1)N(C)C(=O)[C@]31O[C@]3(O)[C@@H](O)C(=O)N4C(C)(C)[C@H](C2)[C@H]1[C@@]43O`, the negative-log IC50 (pIC50) in the assay on MCF7 [3] (setting [9]), in the assay on A549 [4], in the assay on SH-SY5Y [5], in the assay on NB-4 and in the assay with PC-3 was 5.38 to 5.92 throughout.

In the case of `COc1ccc(C(CO)C(O)CO)c2oc3c(O)c(O)cc(O)c3c(=O)c12` (stereo not drawn), the pIC50 in the assay on SH-SY5Y [6] is 5.38.

Turning to `COC(=O)CCCN1C(=O)[C@]23O[C@]4(O)[C@@H](O)C(=O)N5C(C)(C)[C@H](Cc6cccc1c62)[C@H]3[C@@]54O`, the negative-log IC50 (pIC50) in the assay on MCF7 [3] (setting [9]), with SH-SY5Y [5], in the assay on NB-4 and with PC-3 was more than 5.00 each time.

In the case of `C[C@H]1C(=O)N2c3ccccc3[C@@]3(O)C[C@H](n4cnc5ccccc5c4=O)C(=O)N1[C@@H]23`, the pIC50 with PC-3 is 4.49.

For the compound `C[C@H]1[C@@H](O)CCC(C)(C)[C@@]12CC=C(C(=O)O)CC2`, the pIC50 in [2] is 4.60.

Turning to `COc1cc(C)c2c(c1)oc(=O)c1c(O)cc(O[C@@H]3O[C@H](CO)[C@H](O)[C@H](O)[C@H]3O)cc12`, in the assay with L02, it took 7.2 µg/mL to reach half-maximal inhibition (IC50).
